One assay concerns conscious rats. In words: Acute infusion of L-NAME during chronic infusion of purified porcine RLX. The format is in vivo, rat. As to the method: At least 7 days after the implantation of vascular and bladder catheters, osmotic minipumps containing either porcine RLX (4 μg/hour) or vehicle (Ringer's solution) were implanted in intact, female rats (n=7 and 6 rats, respectively). Renal function and MAP were measured on day 5 of relaxin infusion (three 30-minute urine and midpoint blood collections). Next, an infusion of L-NAME (2 μg/minute, a substrate competitive inhibitor of NO synthase) was administered intravenously (i.v.) by infusion pump (Model 200, KD Scientific, Boston, Mass.). Four 1-hour urine collections with midpoint blood samples were collected for the assessment of GFR, ERPF, and ERVR during the L-NAME administration. Identical procedures were performed on additional animals chronically administered porcine RLX (n=5) or vehicle (n=5), except that ANG II (3 ng/minute) was infused rather than L-NAME. Finally, another four, age-matched control rats were administered Ringer's solution instead of either L-NAME or ANG II on day 5 of porcine RLX infusion.
MAP, GFR, ERPF, and ERVR were measured at time zero (baseline), and at 60, 120, 180, and 240 minutes after administering L-NAME and either RLX or vehicle alone. Values represent the mean±SEM. L-NAME (Nω-nitro-L-arginine methyl ester) was infused at 2 μg/minute intravenously, and relaxin was administered at 4 μg/hour by osmotic minipump subcutaneously. There were 7 and 6 rats, respectively, in the RLX and vehicle groups. An asterisk denotes p<0.05; the symbol H denotes p<0.05 for RLX vs. vehicle.

The next assay has as its system db/db mice. In words: Full thickness wound healing in db/db mice. The conditions noted are these: PDGF 5 μg/wound/day for 5 days. The format is in vivo, mouse. As to the method: To determine whether rhRlx would improve healing in this model of impaired healing, standardized full thickness (1.5 cm×1.5 cm) wounds were made on the back of db/db mice (Jackson Laboratories, Bar Harbor, Me.). Mice were treated continuously for 21 days with rhRlx via a subcutaneously implanted Alzet pump at a dose of either 0.1 mg/kg/day or 0.2 mg/kg/day. Wound areas were measured in the course of the study. Healing is presented as wound area on day 14 relative to the original size of the wound on day 0 and is calculated as: % of original wound area=[Area on day 14/area on day 0]×100. […] Wound closure was expressed as “% of original wound area.” There were 8-20 animals per group. Wound closure was 91.4% in control group vs. 64% in the relaxin-treated group (p<0.05 by Student-Newman-Kuels test). The differences in the extent of wound healing were small among vehicle control and low dose of rhRlx treatment as well as PDGF (5 μg/wound/day for 5 days) treated mice.
At day 21-post surgery, the wounds were also excised and fixed in formalin prior to paraffin embedding. Sections from the middle of the wound were stained with Masson's trichrome and evaluated by two investigators. […] Inflammatory cell accumulation was present at the wound edges.
Neovascularization is a key component of granulation tissue formation. New blood vessel formation is stimulated by a variety of growth factors including bFGF, and VEGF. […] Immunohistochemical staining of the midsection of full thickness wounds using polyclonal antibody to von Willebrand factor VIII-related antigen was used to identify new blood vessels in the wounds.

Assay [1] has as its system Rat aortic adventitial fibroblasts. Briefly: Collagen and fibronectin expression by adventitial fibroblasts. It is filed as cell-based. As to the method: Aortic adventitial fibroblasts from normal adult Sprague/Dawley rats were explanted by carefully dissecting the adventitia away from the media and culturing 1 mm^3 pieces in Dulbecco's modified Eagles Medium (DMEM), plus 10% bovine fetal calf serum. When cultures were confluent, fibroblasts were dispersed with trypsin and passaged once prior to use in experiments. Fibroblasts were seeded at 10^5 cells/cm^2 in DMEM+10% FBS in 48-well plates for experiments and assayed for collagen and fibronectin expression, as previously described (Unemori et al. (1996) J. Clin. Invest. 98:2739-2745). […] Half of the cultures were also treated simultaneously with 10 ng/ml of rhRlx. Proteins were biosynthetically labeled with ^3H-proline (25 μCi/ml) (Amersham Corp., Arlington Heights, Ill.), in the presence of ascorbate (50 μg/ml) and β-aminopropionitrile (80 μg/ml), and conditioned media collected 24 hours later. Media were electrophoresed on SDS-PAGE, and the density of collagen and fibronectin bands was determined by densitometric scanning using a digital imaging system (Alpha Innotech Corp, San Leandro, Calif.).

In the case of `COC(=O)[C@@H](N)CCCNC(=N)N[N+](=O)[O-]` [L-NAME, Nω-nitro-L-arginine methyl ester, reference compound], the “renal vasodilation and hyperfiltration in the relaxin-treated rats” value in the assay with conscious rats (day 5 of porcine RLX infusion, L-NAME 2 μg/minute i.v.) was “completely abrogated”. Also, the “rise in MAP and ERVR, and reduction in GFR and ERPF” value in the assay on conscious rats (relaxin-treated compared to vehicle infused rats) is listed as “significantly greater”.

Regarding PDGF [reference compound], the “differences in the extent of wound healing vs vehicle control” value with db/db mice was “small”.

As for TGF-β [reference compound], the “expression of collagens, of control levels” value in assay [1] (TGF-β (20 ng/ml)) came to 484±67%. Besides, the “Fibronectin expression, of control levels” value in assay [1] (TGF-β treatment) worked out at 360±5%.
